Results from US11780830B2, “Triazolone derivatives or salts thereof and pharmaceutical compositions comprising the same” (YUHAN CORPORATION, priority 2018, dated 2023).
Counter-ions that a name gives are not always drawn.

Assays:
Format in all cases: biochemical
[1] = biological target: T1, recombinant human DAO (diamine oxidase) (Homo sapiens, UniProt P19801); assay: Activity on recombinant human DAO, method similar to the VAP-1 assay; details: substrate 1 mM putrescine; read-out: Inhibitory Activity (IC50, nM) DAO
T1 construct: purchased R&D systems
T1 sequence (P19801 20-751): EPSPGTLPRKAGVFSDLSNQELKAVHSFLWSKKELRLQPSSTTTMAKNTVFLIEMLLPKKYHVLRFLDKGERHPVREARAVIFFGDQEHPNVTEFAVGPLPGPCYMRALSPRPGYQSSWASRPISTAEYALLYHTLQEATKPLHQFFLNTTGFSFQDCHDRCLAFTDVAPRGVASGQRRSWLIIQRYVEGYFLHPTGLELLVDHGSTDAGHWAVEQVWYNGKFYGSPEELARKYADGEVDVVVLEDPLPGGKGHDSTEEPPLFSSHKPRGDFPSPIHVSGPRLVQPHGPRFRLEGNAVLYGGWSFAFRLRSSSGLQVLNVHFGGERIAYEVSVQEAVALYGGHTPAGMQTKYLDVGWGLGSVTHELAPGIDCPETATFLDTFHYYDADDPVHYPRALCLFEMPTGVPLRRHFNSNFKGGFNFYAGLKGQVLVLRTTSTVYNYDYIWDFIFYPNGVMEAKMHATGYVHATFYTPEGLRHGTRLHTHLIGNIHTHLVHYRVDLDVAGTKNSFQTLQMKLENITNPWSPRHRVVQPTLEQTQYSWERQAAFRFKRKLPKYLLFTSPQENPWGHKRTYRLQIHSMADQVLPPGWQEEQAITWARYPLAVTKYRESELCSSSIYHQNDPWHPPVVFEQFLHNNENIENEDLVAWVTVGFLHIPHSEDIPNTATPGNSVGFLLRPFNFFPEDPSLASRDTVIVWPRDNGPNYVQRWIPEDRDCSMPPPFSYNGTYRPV
Procedure, shortened: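 Inhibition of recombinant human diamine oxidase (DAO, R&D systems) was assessed by the same approach as the VAP-1 assay, using 1 mM putrescine as substrate. Hydrogen peroxide formed was detected through an HRP-coupled Amplex Red reaction yielding fluorescent resorufin, read at 544 nm excitation and 590 nm emission. IC50 values came from four-parameter logistic fitting in GraphPad Prism.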

[2] = biological target: T2, recombinant human MAO-B (monoamine oxidase-B) (Homo sapiens, UniProt P27338); assay: Activity on recombinant human MAO-B, method similar to the VAP-1 assay; details: substrate 1 mM benzylamine; read-out: Inhibitory Activity (IC50, nM) MAO-B
T2 construct: purchased Sigma-Aldrich
T2 sequence (P27338 1-520): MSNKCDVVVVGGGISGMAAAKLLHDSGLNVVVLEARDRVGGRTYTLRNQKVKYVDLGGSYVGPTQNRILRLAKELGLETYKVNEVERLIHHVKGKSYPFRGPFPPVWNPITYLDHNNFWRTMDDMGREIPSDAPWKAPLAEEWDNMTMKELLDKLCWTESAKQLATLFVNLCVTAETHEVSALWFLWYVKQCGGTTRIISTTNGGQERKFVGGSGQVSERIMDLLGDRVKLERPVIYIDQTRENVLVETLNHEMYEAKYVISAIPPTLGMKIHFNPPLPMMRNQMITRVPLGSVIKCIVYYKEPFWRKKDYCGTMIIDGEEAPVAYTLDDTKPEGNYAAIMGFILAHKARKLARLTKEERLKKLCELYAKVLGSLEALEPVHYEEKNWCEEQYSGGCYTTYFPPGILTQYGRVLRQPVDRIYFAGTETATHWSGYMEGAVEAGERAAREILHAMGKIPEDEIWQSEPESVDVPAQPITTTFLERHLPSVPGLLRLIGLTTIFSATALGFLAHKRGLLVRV
Procedure, shortened: (§1)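 HRP-coupled Amplex Red H2O2 assay, 50 mM sodium phosphate pH 7.4; compounds (8-point 1:3 series, final DMSO <1%) preincubated with enzyme 30 min at 37° C, then 200 uM Amplex Red, 1 U/mL HRP and substrate (MAO-A 0.5 mM tyramine; MAO-B 1 mM benzylamine) added. Resorufin fluorescence (ex 544/em 590 nm) read over 1-2 h; IC50 from four-parameter logistic fit.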

[3] = biological target: T3, recombinant human VAP-1 (Homo sapiens, UniProt Q16853); assay: Activity on recombinant human VAP-1, HRP-coupled Amplex Red hydrogen peroxide assay; details: substrate 1 mM benzylamine; compound incubated with enzyme at 37° C. for 30 minutes; pH 7.4; read-out: Inhibitory Activity (IC50, nM) human VAP-1
T3 construct: purchased R&D systems
T3 sequence (Q16853 1-763): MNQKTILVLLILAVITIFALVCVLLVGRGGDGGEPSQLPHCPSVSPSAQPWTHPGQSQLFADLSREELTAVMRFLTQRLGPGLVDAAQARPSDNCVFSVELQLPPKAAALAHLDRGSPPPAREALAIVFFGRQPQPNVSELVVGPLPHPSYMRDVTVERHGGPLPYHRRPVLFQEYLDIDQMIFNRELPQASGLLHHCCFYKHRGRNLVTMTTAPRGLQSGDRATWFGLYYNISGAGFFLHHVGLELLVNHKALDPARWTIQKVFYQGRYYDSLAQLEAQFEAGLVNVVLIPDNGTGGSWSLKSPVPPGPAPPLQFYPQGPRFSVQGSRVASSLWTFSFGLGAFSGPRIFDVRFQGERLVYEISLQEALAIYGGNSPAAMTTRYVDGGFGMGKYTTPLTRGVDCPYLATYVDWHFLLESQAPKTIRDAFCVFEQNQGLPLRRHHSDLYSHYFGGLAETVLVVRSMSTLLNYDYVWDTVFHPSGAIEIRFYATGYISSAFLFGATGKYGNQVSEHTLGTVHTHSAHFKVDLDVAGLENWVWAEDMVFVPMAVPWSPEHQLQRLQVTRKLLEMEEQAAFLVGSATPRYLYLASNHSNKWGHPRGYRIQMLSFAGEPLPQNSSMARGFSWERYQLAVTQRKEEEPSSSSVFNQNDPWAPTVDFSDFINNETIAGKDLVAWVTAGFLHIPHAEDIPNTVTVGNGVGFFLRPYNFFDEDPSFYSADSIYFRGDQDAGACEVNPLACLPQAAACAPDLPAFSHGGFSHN
Procedure, shortened: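 8-point 1:3 dilutions, final DMSO <1%; 30 min enzyme preincubation, 37 °C, pH 7.4 phosphate. Start: 1 mM benzylamine + 200 uM Amplex Red + 1 U/mL HRP. Read ex544/em590 over 1-2 h; % rate decrease vs DMSO control, 4-parameter logistic IC50.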

[4] = biological target: T4, recombinant human MAO-A (monoamine oxidase-A) (Homo sapiens, UniProt P21397); assay: Activity on recombinant human MAO-A, method similar to the VAP-1 assay; details: substrate 0.5 mM tyramine; read-out: Inhibitory Activity (IC50, nM) MAO-A
T4 construct: purchased Sigma-Aldrich
T4 sequence (P21397 1-527): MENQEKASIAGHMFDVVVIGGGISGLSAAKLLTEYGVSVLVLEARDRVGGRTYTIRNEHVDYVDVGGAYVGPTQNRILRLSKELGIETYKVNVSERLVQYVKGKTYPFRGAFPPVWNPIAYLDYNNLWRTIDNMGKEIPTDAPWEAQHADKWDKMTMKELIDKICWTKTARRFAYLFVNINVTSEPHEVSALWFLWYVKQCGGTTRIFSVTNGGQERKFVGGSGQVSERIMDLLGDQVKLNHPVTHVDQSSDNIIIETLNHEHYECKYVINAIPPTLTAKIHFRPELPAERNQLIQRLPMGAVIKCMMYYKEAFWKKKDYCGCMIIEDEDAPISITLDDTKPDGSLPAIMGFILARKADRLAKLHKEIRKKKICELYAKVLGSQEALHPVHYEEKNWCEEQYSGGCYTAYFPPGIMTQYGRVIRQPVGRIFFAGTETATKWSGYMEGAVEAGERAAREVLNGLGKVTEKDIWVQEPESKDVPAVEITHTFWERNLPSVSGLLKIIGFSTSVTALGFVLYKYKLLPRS
Procedure, shortened: as §1

IC50 [1] [nM]	IC50 [2] [nM]	IC50 [3] [nM]	IC50 [4] [nM]	Compound
1100	35	1.8	> 100000	COC(=O)c1cccc(-c2ccc(Cn3cnn(C/C(=C/F)CN)c3=O)s2)c1 [Example 11, methyl 3-[5-(1-[(2E)-2-(aminomethyl)-3-fluoroprop-2-en-1-yl]-5-oxo-1,5-dihydro-4H-1,2,4-triazol-4-ylmethyl)thiophen-2-yl]benzoate hydrochloride]
2000	85	1	> 100000	NC/C(=C\F)Cn1ncn(Cc2ccc(-c3ccc4c(c3)COC4)s2)c1=O [Example 193, 2-[(2E)-2-(aminomethyl)-3-fluoroprop-2-en-1-yl]-4-{[5-(1,3-dihydro-2-benzofuran-5-yl)thiophen-2-yl]methyl}-2,4-dihydro-3H-1,2,4-triazol-3-one]
1100	1500	3.2	15000	CN1CCOc2cc(-c3ccc(Cn4cnn(C/C(=C/F)CN)c4=O)s3)ccc21 [Example 103, 2-[(2E)-2-(aminomethyl)-3-fluoroprop-2-en-1-yl]-4-[5-(4-methyl-3,4-dihydro-2H-1,4-benzoxazin-7-yl)thiophen-2-yl]methyl-2,4-dihydro-3H-1,2,4-triazol-3-one hydrochloride]

More lines, now with the values behind:

Compound	IC50 [1] [nM]	IC50 [2] [nM]	IC50 [3] [nM]	IC50 [4] [nM]
NC/C(=C\F)Cn1ncn(Cc2ccc(C#CCN3CCS(=O)(=O)CC3)s2)c1=O [Example 132, 2-[(2E)-2-(aminomethyl)-3-fluoroprop-2-en-1-yl]-4-(5-[3-(1,1-dioxidothiomorpholin-4-yl)prop-1-yn-1-yl]thiophen-2-ylmethyl)-2,4-dihydro-3H-1,2,4-triazol-3-one hydrochloride]	1400	2500	3.1	> 100000
NC/C(=C\F)Cn1ncn(Cc2ccc(-c3cnn(Cc4ccccc4)c3)s2)c1=O [Example 151, 2-[(2E)-2-(aminomethyl)-3-fluoroprop-2-en-1-yl]-4-{[5-(1-benzyl-1H-pyrazol-4-yl)thiophen-2-yl]methyl}-2,4-dihydro-3H-1,2,4-triazol-3-one]	790	1500	2.7	59000
CS(=O)(=O)c1ccc(-c2csc(Cn3cnn(C/C(=C/F)CN)c3=O)c2)cc1 [Example 201]	450	3000	1.5	> 100000
NC/C(=C\F)Cn1ncn(Cc2ccc(-c3ccn4ncnc4c3)s2)c1=O [Example 66, 2-[(2E)-2-(aminomethyl)-3-fluoroprop-2-en-1-yl]-4-[5-([1,2,4]triazolo[1,5-a]pyridin-7-yl)thiophen-2-yl]methyl-2,4-dihydro-3H-1,2,4-triazol-3-one hydrochloride]	340	1200	0.5	> 10000
NC/C(=C\F)Cn1ncn(Cc2ccc(-c3ccc(N4CCNCC4)cc3)s2)c1=O [Example 22, 2-[(2E)-2-(aminomethyl)-3-fluoroprop-2-en-1-yl]-4-(5-[4-(piperazin-1-yl)phenyl]thiophen-2-ylmethyl)-2,4-dihydro-3H-1,2,4-triazol-3-one hydrochloride]	2400	2600	6.4	> 100000
Cc1cc(-c2ccc(CCn3cnn(C/C(=C/F)CN)c3=O)s2)cc2c1NC(=O)CC2 [Example 218, 6-[5-(2-{1-[(2E)-2-(aminomethyl)-3-fluoroprop-2-en-1-yl]-5-oxo-1,5-dihydro-4H-1,2,4-triazol-4-yl}ethyl)thiophen-2-yl]-8-methyl-3,4-dihydroquinolin-2(1H)-one]	200	76000	0.7	> 100000
COc1cc(COc2c(C)cc(-c3ccc(Cn4cnn(C/C(=C/F)CN)c4=O)s3)cc2C)cc(OC)c1 [Example 18, 2-[(2E)-2-(aminomethyl)-3-fluoroprop-2-en-1-yl]-4-[(5-4-[(3,5-dimethoxybenzyl)oxy]-3,5-dimethylphenylthiophen-2-yl)methyl]-2,4-dihydro-3H-1,2,4-triazol-3-one hydrochloride]	350	220	2.1	13000
